Experimental data as given in ChEMBL document CHEMBL1149514, “Tetrahydrofluorenones with conformationally restricted side chains as selective estrogen receptor beta ligands” (Bioorg Med Chem Lett, 2006).

How the values were obtained:
Estrogen receptor = molecular target: T1, Estrogen receptor (Homo sapiens, UniProt P03372)
T1 sequence (P03372 whole entry): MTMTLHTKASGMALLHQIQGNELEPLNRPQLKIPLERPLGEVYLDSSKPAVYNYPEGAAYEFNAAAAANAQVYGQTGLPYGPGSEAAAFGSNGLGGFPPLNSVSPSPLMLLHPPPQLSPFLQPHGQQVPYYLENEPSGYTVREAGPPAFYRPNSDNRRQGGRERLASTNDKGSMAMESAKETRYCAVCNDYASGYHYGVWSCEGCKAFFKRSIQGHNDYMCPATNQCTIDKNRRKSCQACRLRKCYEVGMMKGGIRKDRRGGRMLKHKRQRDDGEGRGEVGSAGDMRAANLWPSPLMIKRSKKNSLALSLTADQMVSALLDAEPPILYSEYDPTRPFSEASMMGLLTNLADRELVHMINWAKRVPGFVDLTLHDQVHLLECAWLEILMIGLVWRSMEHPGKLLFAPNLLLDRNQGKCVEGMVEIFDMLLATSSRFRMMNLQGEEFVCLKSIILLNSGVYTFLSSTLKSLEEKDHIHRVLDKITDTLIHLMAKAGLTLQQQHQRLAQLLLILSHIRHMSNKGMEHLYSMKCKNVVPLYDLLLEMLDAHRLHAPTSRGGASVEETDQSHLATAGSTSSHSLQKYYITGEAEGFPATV
Description: Binding affinity to human recombinant ERalpha by scintillation proximity assay

Estrogen receptor beta = Estrogen receptor beta (Homo sapiens, UniProt Q92731)
Estrogen receptor beta, sequence (Q92731 whole entry): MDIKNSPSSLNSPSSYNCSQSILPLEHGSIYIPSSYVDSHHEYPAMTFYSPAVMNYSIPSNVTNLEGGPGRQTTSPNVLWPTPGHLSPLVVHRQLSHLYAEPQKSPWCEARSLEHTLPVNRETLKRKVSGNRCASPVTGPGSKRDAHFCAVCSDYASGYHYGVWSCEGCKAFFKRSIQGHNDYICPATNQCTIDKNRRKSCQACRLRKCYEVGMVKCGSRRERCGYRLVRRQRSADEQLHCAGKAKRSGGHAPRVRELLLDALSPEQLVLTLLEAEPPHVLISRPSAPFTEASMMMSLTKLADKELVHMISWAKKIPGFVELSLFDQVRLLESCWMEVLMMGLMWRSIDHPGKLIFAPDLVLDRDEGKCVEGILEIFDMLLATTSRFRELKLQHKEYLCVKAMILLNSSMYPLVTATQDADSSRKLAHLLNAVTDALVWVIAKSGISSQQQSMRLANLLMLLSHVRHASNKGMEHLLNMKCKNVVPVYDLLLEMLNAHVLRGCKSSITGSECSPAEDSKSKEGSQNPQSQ
Description: Binding affinity to human recombinant ERbeta by scintillation proximity assay

Row | IC50 (Estrogen receptor) | IC50 (Estrogen receptor beta) | SMILES
1 | 793 nM | 12 nM | CC1=C2c3ccc(O)cc3C[C@@]23CC[C@H](C3)C1=O
2 | 414 nM | 11 nM | CC1=C2c3ccc(O)cc3C[C@@]23CCC[C@H](C3)C1=O
3 | 310 nM | 45 nM | CC[C@H]1CC[C@@H]2C[C@]13Cc1cc(O)ccc1C3=C(C)C2=O
4 | 84 nM | 5 nM | CCC[C@@H]1CC[C@@H]2C[C@]13Cc1cc(O)ccc1C3=C(C)C2=O
5 | 605 nM | 141 nM | CCC[C@H]1CC[C@@H]2C[C@]13Cc1cc(O)ccc1C3=C(C)C2=O
6 | 146 nM | 5 nM | CC[C@@H]1CC[C@@H]2C[C@]13Cc1cc(O)ccc1C3=C(C)C2=O
